One may read the IC50 as the midpoint of a concentration-inhibition curve. A word on the Ki: it is the equilibrium dissociation constant of an inhibitor or competing ligand from its target.

The results in this text go back to ChEMBL document CHEMBL1909046, “DrugMatrix in vitro pharmacology data”.

Assay [1] can be described thus: DRUGMATRIX: Glutamate, AMPA radioligand binding (ligand: [3H] AMPA). Type of assay: cell membranes, Rattus norvegicus, Wistar, Cerebral cortex, Membrane. As to conditions: Not Active = under 50% inhibition at 10 µM.
A short description of assay [2]: DRUGMATRIX: Leukotriene, BLT (LTB4) radioligand binding (ligand: [3H]LTB4). The format is cell membranes, Membrane. As to conditions: u-937; Not Active = under 50% inhibition at 10 µM.
Another assay addresses T1, Adenosine receptor A3 (Homo sapiens, UniProt P0DMS8).
T1 sequence (P0DMS8 whole entry): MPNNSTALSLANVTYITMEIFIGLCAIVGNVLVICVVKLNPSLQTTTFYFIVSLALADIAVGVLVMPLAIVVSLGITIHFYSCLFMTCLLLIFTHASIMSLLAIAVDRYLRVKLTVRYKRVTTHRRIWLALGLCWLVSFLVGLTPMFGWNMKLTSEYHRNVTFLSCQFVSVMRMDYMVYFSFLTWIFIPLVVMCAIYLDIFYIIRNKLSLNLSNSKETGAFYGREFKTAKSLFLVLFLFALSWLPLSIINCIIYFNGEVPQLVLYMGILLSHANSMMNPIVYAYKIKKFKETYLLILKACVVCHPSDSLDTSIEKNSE
Type of assay: cell membranes, CHO-K1, Membrane.

The target of assay [3] is T2, Alpha-2C adrenergic receptor (Homo sapiens, UniProt P18825).
T2 sequence (P18825 whole entry): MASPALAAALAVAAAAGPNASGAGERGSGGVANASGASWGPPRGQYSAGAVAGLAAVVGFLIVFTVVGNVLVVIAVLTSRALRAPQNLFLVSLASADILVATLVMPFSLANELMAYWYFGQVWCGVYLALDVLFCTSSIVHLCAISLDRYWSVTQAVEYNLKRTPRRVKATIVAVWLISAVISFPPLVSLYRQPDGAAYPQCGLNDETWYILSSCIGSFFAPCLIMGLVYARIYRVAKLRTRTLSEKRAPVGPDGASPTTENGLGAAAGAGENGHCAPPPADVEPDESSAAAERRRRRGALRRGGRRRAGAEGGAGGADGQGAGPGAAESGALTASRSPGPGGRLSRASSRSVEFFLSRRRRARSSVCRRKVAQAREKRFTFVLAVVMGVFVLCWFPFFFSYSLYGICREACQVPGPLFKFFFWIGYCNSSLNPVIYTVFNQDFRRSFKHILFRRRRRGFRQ
Put plainly: DRUGMATRIX: Adrenergic Alpha-2C radioligand binding (ligand: [3H] MK-912). Type of assay: cell membranes, Sf9, Membrane.

The next assay concerns the target Insulin receptor (Rattus norvegicus, UniProt P15127). Type of assay: cell membranes, Wistar, Liver, Membrane. Note: in other assays of this panel Not Active means under 50% inhibition at 10 µM.
Assay [4] has as its target Mitogen-activated protein kinase 3 (Homo sapiens, UniProt P27361). Put plainly: DRUGMATRIX: Protein Serine/Threonine Kinase, ERK1 enzyme inhibition (substrate: Myelin Basic Protein). Details: species or system Escherichia coli. As to conditions: Not Active = under 50% inhibition at 10 µM.

Sequence of Insulin receptor (P15127 27-759 limits assumed): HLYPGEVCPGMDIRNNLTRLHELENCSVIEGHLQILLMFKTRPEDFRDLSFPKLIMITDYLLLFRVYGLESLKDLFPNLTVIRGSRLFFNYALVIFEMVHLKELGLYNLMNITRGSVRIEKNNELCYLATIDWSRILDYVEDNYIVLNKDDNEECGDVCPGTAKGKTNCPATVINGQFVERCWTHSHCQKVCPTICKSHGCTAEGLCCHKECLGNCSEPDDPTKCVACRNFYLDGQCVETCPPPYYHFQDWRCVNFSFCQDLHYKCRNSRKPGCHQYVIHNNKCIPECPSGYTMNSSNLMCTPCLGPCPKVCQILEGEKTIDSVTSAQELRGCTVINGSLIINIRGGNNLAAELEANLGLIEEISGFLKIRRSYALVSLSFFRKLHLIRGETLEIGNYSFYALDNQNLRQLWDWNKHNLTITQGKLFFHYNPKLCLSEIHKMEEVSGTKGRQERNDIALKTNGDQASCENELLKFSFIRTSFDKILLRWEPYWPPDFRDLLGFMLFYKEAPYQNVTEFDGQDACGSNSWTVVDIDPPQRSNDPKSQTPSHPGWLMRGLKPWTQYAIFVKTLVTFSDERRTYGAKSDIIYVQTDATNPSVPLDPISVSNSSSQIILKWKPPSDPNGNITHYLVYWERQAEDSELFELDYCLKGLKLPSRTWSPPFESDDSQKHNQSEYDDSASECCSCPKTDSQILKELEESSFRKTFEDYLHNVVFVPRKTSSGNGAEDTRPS
Sequence of Insulin receptor (P15127 764-1383 limits assumed): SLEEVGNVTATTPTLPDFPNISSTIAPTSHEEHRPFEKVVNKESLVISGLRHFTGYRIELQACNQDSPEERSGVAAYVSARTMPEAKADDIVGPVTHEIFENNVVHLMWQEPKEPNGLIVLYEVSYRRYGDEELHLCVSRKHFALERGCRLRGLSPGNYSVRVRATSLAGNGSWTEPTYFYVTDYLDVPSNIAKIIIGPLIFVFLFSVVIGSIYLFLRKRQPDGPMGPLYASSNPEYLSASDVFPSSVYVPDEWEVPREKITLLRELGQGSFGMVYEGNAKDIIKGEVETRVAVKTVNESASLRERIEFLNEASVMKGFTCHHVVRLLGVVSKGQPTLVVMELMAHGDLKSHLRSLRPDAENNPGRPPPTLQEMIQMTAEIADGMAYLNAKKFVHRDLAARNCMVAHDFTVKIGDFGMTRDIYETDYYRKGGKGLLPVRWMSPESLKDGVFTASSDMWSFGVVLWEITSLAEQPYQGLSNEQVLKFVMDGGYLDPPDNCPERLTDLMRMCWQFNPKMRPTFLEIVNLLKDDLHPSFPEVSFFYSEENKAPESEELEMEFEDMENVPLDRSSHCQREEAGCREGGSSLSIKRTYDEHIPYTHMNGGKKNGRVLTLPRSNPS
Sequence of Mitogen-activated protein kinase 3 (P27361 whole entry): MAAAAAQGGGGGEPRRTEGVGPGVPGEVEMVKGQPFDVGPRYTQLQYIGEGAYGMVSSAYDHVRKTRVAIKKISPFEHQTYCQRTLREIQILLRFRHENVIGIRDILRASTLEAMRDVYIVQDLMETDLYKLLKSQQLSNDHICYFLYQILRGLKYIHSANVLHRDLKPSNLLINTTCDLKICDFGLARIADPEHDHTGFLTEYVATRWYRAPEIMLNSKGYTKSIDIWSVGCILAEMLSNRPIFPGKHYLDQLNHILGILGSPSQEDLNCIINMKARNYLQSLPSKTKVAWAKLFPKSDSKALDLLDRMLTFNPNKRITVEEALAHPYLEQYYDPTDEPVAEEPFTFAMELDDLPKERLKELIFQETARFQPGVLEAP

Take `C[N+](C)(C)CCOC(N)=O.[Cl-]` [CARBACHOL]: the IC50 result (in assay [1]; in assay [2]; against Adenosine receptor A3 (cho-k1); in assay [3] (sf9); at Insulin receptor; in assay [4]) was “Not Active” in each case. Also, the Ki entry in assay [1] and in assay [2] was “Not Active” each time.
In the case of `C[C@]12CC[C@@H](O)C[C@@H]1CC[C@@H]1[C@@H]2CC[C@]2(C)C(=O)CC[C@@H]12` [ANDROSTERONE], the IC50 entry (in assay [1]; in assay [2]; at Adenosine receptor A3 (cho-k1); in assay [3] (sf9); at Insulin receptor; in assay [4]) was “Not Active” throughout. The Ki entry in assay [1] and in assay [2] was “Not Active” each time.
As to `C[C@H](C(=O)O)c1ccc2oc(-c3ccc(F)cc3)nc2c1` [FLUNOXAPROFEN], the IC50 entry (in assay [1]; in assay [2]; at Adenosine receptor A3 (cho-k1); in assay [3] (sf9); against Insulin receptor; in assay [4]) was “Not Active” in each case. Further, the Ki result in assay [1] and in assay [2] was “Not Active” in each case.
Consider COPPER(II) OXIDE, for which the IC50 result (in assay [1]; in assay [2]; at Adenosine receptor A3 (cho-k1); in assay [3] (sf9); on Insulin receptor; in assay [4]) was “Not Active” each time. Moreover, the Ki entry (in assay [1]; in assay [2]; on Adenosine receptor A3 (cho-k1); in assay [3] (sf9); on Insulin receptor; in assay [4]) was “Not Active” each time.
For `NC(=O)CN1CCCC1=O`, the IC50 entry (in assay [1]; in assay [2]; against Adenosine receptor A3 (cho-k1); in assay [3] (sf9); against Insulin receptor; in assay [4]) was “Not Active” each time. Further, the Ki entry in assay [1] and in assay [2] was “Not Active” in each case.
Take `O=C1c2ccccc2C(=O)C1c1ccccc1` [PHENINDIONE]: the IC50 entry (in assay [1]; in assay [2]; against Adenosine receptor A3 (cho-k1); in assay [3] (sf9); against Insulin receptor; in assay [4]) was “Not Active” each time. Besides, the Ki entry in assay [1] and in assay [2] was “Not Active” throughout.
On to `CCN1C[C@]2(COC)[C@H](O)C[C@H](OC)[C@@]34[C@@H]5C[C@@]6(O)[C@H](OC(=O)c7ccccc7)[C@@H]5[C@@](OC(C)=O)([C@@H]([C@H](OC)[C@H]23)[C@@H]14)[C@@H](O)[C@@H]6OC` [ACONITINE], for which the IC50 result (in assay [1]; in assay [2]; against Adenosine receptor A3 (cho-k1); in assay [3] (sf9); on Insulin receptor; in assay [4]) was “Not Active” each time. Also, the Ki result in assay [1] and in assay [2] was “Not Active” in each case.
Turning to `O=C(NCCN1CCOCC1)c1ccc(Cl)cc1` [MOCLOBEMIDE], the IC50 result (in assay [1]; in assay [2]; against Adenosine receptor A3 (cho-k1); in assay [3] (sf9); at Insulin receptor; in assay [4]) was “Not Active” in each case. Moreover, the Ki result in assay [1] and in assay [2] was “Not Active” throughout.
As to `O=C(O)COC(=O)Cc1ccccc1Nc1c(Cl)cccc1Cl` [ACECLOFENAC], the IC50 result (in assay [1]; in assay [2]; against Adenosine receptor A3 (cho-k1); in assay [3] (sf9); at Insulin receptor; in assay [4]) was “Not Active” each time. Besides, the Ki entry in assay [1] and in assay [2] was “Not Active” in each case.
Take `COc1cc(/C=C/C(=O)O)ccc1O` [FERULATE]: the IC50 entry (in assay [1]; in assay [2]; against Adenosine receptor A3 (cho-k1); in assay [3] (sf9); against Insulin receptor; in assay [4]) was “Not Active” in each case. For the same compound, the Ki result in assay [1] and in assay [2] was “Not Active” each time.
`O=c1[nH]c2ccccc2c2ccccc12`: the IC50 result (in assay [1]; in assay [2]; at Adenosine receptor A3 (cho-k1); in assay [3] (sf9); against Insulin receptor; in assay [4]) was “Not Active” each time. The Ki entry in assay [1] and in assay [2] was “Not Active” each time.
In the case of `COc1ccc(C[C@H](N)C(=O)N[C@H]2[C@@H](O)[C@H](n3cnc4c(N(C)C)ncnc43)O[C@@H]2CO)cc1` [PUROMYCIN], the IC50 result (in assay [1]; in assay [2]; on Adenosine receptor A3 (cho-k1); in assay [3] (sf9); against Insulin receptor; in assay [4]) was “Not Active” each time. The Ki entry in assay [1] and in assay [2] was “Not Active” in each case.
Take `NC(=O)NC(=O)Cc1ccccc1` [PHENACEMIDE]: the IC50 result (in assay [1]; in assay [2]; against Adenosine receptor A3 (cho-k1); in assay [3] (sf9); on Insulin receptor; in assay [4]) was “Not Active” throughout. Moreover, the Ki result in assay [1] and in assay [2] was “Not Active” throughout.
`COc1ccccc1OCCNCC(O)COc1cccc2[nH]c3ccccc3c12` (centres undefined) [CARVEDILOL]: the IC50 entry was “Not Active” in assay [1]; “Not Active” in assay [2]; “Not Active” at Adenosine receptor A3 (cho-k1); 0.09 µM in assay [3] (read-out: IC50); “Not Active” on Insulin receptor; “Not Active” in assay [4]. For the same compound, the Ki result in assay [1] is “Not Active”; in assay [2], “Not Active”; in assay [3] (read-out: Ki), 0.013 µM.
For the compound `CC(N)Cc1c[nH]c2ccc(OCc3cccs3)cc12` (centres undefined) [BW-723C86], the IC50 entry (in assay [1]; in assay [2]; against Adenosine receptor A3 (cho-k1); in assay [3] (sf9); at Insulin receptor; in assay [4]) was “Not Active” in each case. Moreover, the Ki entry in assay [1] and in assay [2] was “Not Active” in each case.
In the case of `c1ccc2c(c1)Nc1ccccc1S2` [PHENOTHIAZINE], the IC50 result in assay [1] is “Not Active”; in assay [2], “Not Active”; on Adenosine receptor A3 (read-out: IC50) it was 25.6 µM; in assay [3] (sf9), “Not Active”; against Insulin receptor, “Not Active”; in assay [4], “Not Active”. For the same compound, the Ki entry was “Not Active” in assay [1], “Not Active” in assay [2] and 14.5 µM at Adenosine receptor A3 (read-out: Ki).
Regarding POVIDONE, the IC50 entry (in assay [1]; in assay [2]; at Adenosine receptor A3 (cho-k1); in assay [3] (sf9); at Insulin receptor; in assay [4]) was “Not Active” each time. Moreover, the Ki result (in assay [1]; in assay [2]; on Adenosine receptor A3 (cho-k1); in assay [3] (sf9); at Insulin receptor; in assay [4]) was “Not Active” throughout.
As to `CN(Cc1cc(Br)cc(Br)c1N)C1CCCCC1` [BROMHEXINE], the IC50 result (in assay [1]; in assay [2]; on Adenosine receptor A3 (cho-k1); in assay [3] (sf9); at Insulin receptor) was “Not Active” in each case. For the same compound, the Ki result in assay [1] and in assay [2] was “Not Active” each time.
Consider `C[C@@H]1[C@H](O)[C@@H](C)/C=C/C=C/C=C/C=C/C=C/C=C/C=C/[C@H](O[C@@H]2O[C@H](C)[C@@H](O)[C@H](N)[C@@H]2O)C[C@@H]2O[C@](O)(C[C@@H](O)C[C@@H](O)[C@H](O)CC[C@@H](O)C[C@@H](O)CC(=O)O[C@H]1C)C[C@H](O)[C@H]2C(=O)O` [AMPHOTERICIN B], for which the IC50 entry (in assay [1]; in assay [2]; at Adenosine receptor A3 (cho-k1); in assay [3] (sf9); on Insulin receptor) was “Not Active” each time. Besides, the Ki entry in assay [1] and in assay [2] was “Not Active” in each case.
For `Cc1cc(C(C)(C)C)c(O)c(C)c1CC1=NCCN1` [OXYMETAZOLINE], the IC50 result (in assay [1]; in assay [2]; on Adenosine receptor A3 (cho-k1); against Insulin receptor; in assay [4]) was “Not Active” throughout. In addition, the Ki result in assay [1] and in assay [2] was “Not Active” in each case.
`CNC[C@H](O)c1ccc(O)c(O)c1` [EPINEPHRINE]: the IC50 result (in assay [1]; in assay [2]; at Adenosine receptor A3 (cho-k1); against Insulin receptor; in assay [4]) was “Not Active” throughout. Also, the Ki entry in assay [1] and in assay [2] was “Not Active” each time.
